According to paper PMC12311259, “Antifibrotic effects of specific targeting of the 5‐hydroxytryptamine 2B receptor (5‐HT2BR) in murine models and ex vivo models of scleroderma skin” (Arthritis & Rheumatology (Hoboken, N.j.), 2025):

Test system: Bleomycin-induced pulmonary fibrosis
Assay: Bleomycin-induced pulmonary fibrosis in mice
Type: in vivo, mouse
Settings: 30 mg/kg orally qd, relative to AM1476
Protocol: Pulmonary fibrosis was induced by a single intratracheal instillation of bleomycin (25 μg in 50 μL of 0.9% NaCl).[12] Treatment was initiated at two weeks after the first injection of bleomycin. AM1476 was administered orally at 1, 3, or 10 mg/kg once daily. Solvent (double‐distilled water) was used as a control, and nintedanib at 30 mg/kg orally every day (qd) was included as a comparator. The outcome was analyzed at two and four weeks after the first injection of bleomycin. Mice injected with 0.9% NaCl, the vehicle of bleomycin, served as nonfibrotic controls. Eight mice per group were analyzed.
Skin samples were fixed in 4% formalin for six hours and embedded in paraffin. Five‐micrometer sections were cut and stained with hematoxylin and eosin (H&E). The dermal thickness was quantified on H&E‐stained sections using images captured with a light microscope (Nikon eclipse 80i) at 100‐fold magnification by manually measuring the distance between the epidermal‐dermal junction and the dermal‐subcutaneous fat junction at four sites per mouse.[15], [16] For lung samples, the whole left lung was fixed in 4% formalin for six hours and embedded in paraffin. Five‐micrometer sections were cut and stained with trichrome and sirius red. Histologic readouts were evaluation of the fibrotic area as the percentage of the total lung area in sirius red–stained sections (two sections per mouse) and quantification of pulmonary changes using the Ashcroft score (four sections per mouse).[17], [18]
The amount of collagen protein in skin and lung samples was determined by hydroxyproline assay.[19], [20] After digestion in 6 M HCl for three hours at 120°C, the pH of the samples was adjusted to a pH range of 6–7 with 6 M NaOH. Afterward, 0.06 M chloramine T was added to each sample and incubated for 20 minutes at room temperature. Next, 3.15 M perchloric acid and 20% p‐dimethylaminobenzaldehyde were added, and samples were incubated for an additional 20 minutes at 60°C. The absorbance was determined at 557 nm with a Spectra MAX 190 microplate spectrophotometer. Absolute values were determined using a standard curved generated with type I collagen (Sigma‐Aldrich).

COC(=O)c1ccc2c(c1)NC(=O)/C2=C(\Nc1ccc(N(C)C(=O)CN2CCN(C)CC2)cc1)c1ccccc1 [nintedanib, reference compound]
antifibrotic effects across the different readouts: comparable
